US10004701B2, “Methods and compositions for treating infection” (UNIVERSITY OF ROCHESTER, priority 2012, dated 2018)
Where a name gives a salt, the structure may show the parent alone. Read-outs that look alike come from different tables or passages of the source.

Tests used:
Test in all cases: AK assay 384-well format, Prestwick library screening
E. faecium = assay type: cell-based, Enterococcus faecium; settings: for fold induction at 50 µM: Enterococcus faecium, 3 h
[1] = system: S. aureus strain USA300-0114; assay type: cell-based, Staphylococcus aureus; settings: for fold induction at 50 µM: Staphylococcus aureus, USA300, 3 h
K. pneumoniae = assay type: cell-based, Klebsiella pneumoniae; settings: for fold induction at 50 µM: Klebsiella pneumoniae, 3 h
[2] = system: A. baumannii strain 98-37-09; assay type: cell-based, Acinetobacter baumannii; settings: for fold induction at 50 µM: Acinetobacter baumannii, 983709, 3 h
P. aeruginosa = assay type: cell-based, Pseudomonas aeruginosa; settings: for fold induction at 50 µM: Pseudomonas aeruginosa, 3 h
E. cloacae = assay type: cell-based, Enterobacter cloacae; settings: for fold induction at 50 µM: Enterobacter cloacae, 3 h
E. coli = assay type: cell-based, Escherichia coli; settings: for fold induction at 50 µM: Escherichia coli, 3 h
[3] = 50 μM final drug concentration, 384-well format, […]
[4] = 50 μM final drug concentration, cutoff for positive-scoring molecules 3-fold increase, read-out: AK-based Prestwick Library Screening Results, E. faecium (fold increase in extracellular AK activity)
[5] = 50 μM final drug concentration, cutoff for positive-scoring molecules 3-fold increase, read-out: AK-based Prestwick Library Screening Results, K. pneumoniae (fold increase in extracellular AK activity)
[6] = 50 μM final drug concentration, cutoff for positive-scoring molecules 3-fold increase, read-out: AK-based Prestwick Library Screening Results, A. baumannii (fold increase in extracellular AK activity)
[7] = 50 μM final drug concentration, cutoff for positive-scoring molecules 3-fold increase, read-out: AK-based Prestwick Library Screening Results, P. aeruginosa (fold increase in extracellular AK activity)
[8] = 50 μM final drug concentration, cutoff for positive-scoring molecules 3-fold increase, read-out: AK-based Prestwick Library Screening Results, E. cloacae (fold increase in extracellular AK activity)
[9] = 50 μM final drug concentration, cutoff for positive-scoring molecules 3-fold increase, read-out: AK-based Prestwick Library Screening Results, E. coli (fold increase in extracellular AK activity)
[10] = planktonic E. faecium, 50 μM final drug concentration, cutoff for positive-scoring molecules 3-fold increase, read-out: AK-based Prestwick Library Screening Results, E. faecium (increase in extracellular AK activity)
[11] = planktonic K. pneumoniae, 50 μM final drug concentration, cutoff for positive-scoring molecules 3-fold increase, read-out: AK-based Prestwick Library Screening Results, K. pneumoniae (increase in extracellular AK activity)
[12] = planktonic A. baumannii, 50 μM final drug concentration, cutoff for positive-scoring molecules 3-fold increase, read-out: AK-based Prestwick Library Screening Results, A. baumannii (increase in extracellular AK activity)
[13] = planktonic P. aeruginosa, 50 μM final drug concentration, cutoff for positive-scoring molecules 3-fold increase, read-out: AK-based Prestwick Library Screening Results, P. aeruginosa (increase in extracellular AK activity)
[14] = planktonic E. cloacae, 50 μM final drug concentration, cutoff for positive-scoring molecules 3-fold increase, read-out: AK-based Prestwick Library Screening Results, E. cloacae (increase in extracellular AK activity)

C[C@]12CC[C@@H](O)C[C@H]1CC[C@@H]1[C@@H]2CC[C@]2(C)C(=O)CC[C@@H]12
AK-based Prestwick Library Screening Results, E. faecium (fold increase in extracellular AK activity) (E. faecium): 1.0 | AK-based Prestwick Library Screening Results, S. aureus (fold increase in extracellular AK activity) [1]: 1.0 | AK-based Prestwick Library Screening Results, K. pneumoniae (fold increase in extracellular AK activity) (K. pneumoniae): 0.9 | AK-based Prestwick Library Screening Results, A. baumannii (fold increase in extracellular AK activity) [2]: 0.9 | AK-based Prestwick Library Screening Results, P. aeruginosa (fold increase in extracellular AK activity) (P. aeruginosa): 1.1 | AK-based Prestwick Library Screening Results, E. cloacae (fold increase in extracellular AK activity) (E. cloacae): 1.9 | AK-based Prestwick Library Screening Results, E. coli (fold increase in extracellular AK activity) (E. coli): 1.2

CN1CCc2cccc3c2[C@H]1Cc1ccc(O)c(O)c1-3.CN1CCc2cccc3c2[C@H]1Cc1ccc(O)c(O)c1-3.Cl.Cl.O
AK-based Prestwick Library Screening Results, E. faecium (increase in extracellular AK activity) (E. faecium; [3]): 0.8 | AK-based Prestwick Library Screening Results, S. aureus (increase in extracellular AK activity) [1, 3]: 0.9 | AK-based Prestwick Library Screening Results, K. pneumoniae (increase in extracellular AK activity) (K. pneumoniae; [3]): 0.8 | AK-based Prestwick Library Screening Results, A. baumannii (increase in extracellular AK activity) [2, 3]: 0.8 | AK-based Prestwick Library Screening Results, P. aeruginosa (increase in extracellular AK activity) (P. aeruginosa; [3]): 0.6 | AK-based Prestwick Library Screening Results, E. cloacae (increase in extracellular AK activity) (E. cloacae; [3]): 0.9 | AK-based Prestwick Library Screening Results, E. coli (increase in extracellular AK activity) (E. coli; [3]): 0.8

CCCCC(CC)CNC(=N)NC(=N)NCCCCCCNC(=N)NC(=N)NCC(CC)CCCC (stereo not drawn) [Alexidine dihydrochloride]
fold induction at 50 µM (E. faecium; [4]): 7.4 | fold induction at 50 µM (K. pneumoniae; [5]): 23.4 | fold induction at 50 µM [2, 6]: 12.3 | fold induction at 50 µM (P. aeruginosa; [7]): 19.2 | fold induction at 50 µM (E. cloacae; [8]): 1.5 | fold induction at 50 µM (E. coli; [9]): 43.3

O=c1cc(-c2ccc(O)cc2)oc2cc(O)cc(O)c12 [Apigenin]
fold induction at 50 µM (E. faecium; [10]): 0.3 | fold induction at 50 µM (K. pneumoniae; [11]): 0.2 | fold induction at 50 µM [2, 12]: 0.2 | fold induction at 50 µM (P. aeruginosa; [13]): 0.2 | fold induction at 50 µM (E. cloacae; [14]): 0.5 | fold induction at 50 µM (E. coli; planktonic E. coli, 50 μM final drug concentration, cutoff for positive-scoring molecules 3-fold increase, read-out: AK-based Prestwick Library Screening Results, E. coli (increase in extracellular AK activity)): 0.2

O=C(O)CCCC[C@@H]1SC[C@@H]2NC(=O)N[C@@H]21 [Biotin]
fold induction at 50 µM (E. faecium; [10]): 0.9 | fold induction at 50 µM ([1]; planktonic S. aureus, 50 μM final drug concentration, cutoff for positive-scoring molecules 3-fold increase, read-out: AK-based Prestwick Library Screening Results, S. aureus (increase in extracellular AK activity)): 1.4 | fold induction at 50 µM (K. pneumoniae; [11]): 0.6 | fold induction at 50 µM [2, 12]: 0.8 | fold induction at 50 µM (P. aeruginosa; [13]): 0.7 | fold induction at 50 µM (E. cloacae; [14]): 0.8

[H]/N=C(\N/C(=N/[H])NCCCCCCNC(=N)NC(=N)Nc1ccc(Cl)cc1)Nc1ccc(Cl)cc1 [Chlorhexidine, chlorhexidine, reference compound]
fold induction at 50 µM (E. faecium; planktonic E. faecium, 50 μM final drug concentration, 384-well, cutoff for positive-scoring molecules 3-fold increase, read-out: AK-based Prestwick Library Screening Results: E. faecium (increase in extracellular AK activity)): 4 | fold induction at 50 µM (K. pneumoniae; planktonic K. pneumoniae, 50 μM final drug concentration, 384-well, cutoff for positive-scoring molecules 3-fold increase, read-out: AK-based Prestwick Library Screening Results: K. pneumoniae (increase in extracellular AK activity)): 18.8 | fold induction at 50 µM ([2]; planktonic A. baumannii, 50 μM final drug concentration, 384-well, cutoff for positive-scoring molecules 3-fold increase, read-out: AK-based Prestwick Library Screening Results: A. baumannii (increase in extracellular AK activity)): 12.3 | fold induction at 50 µM (P. aeruginosa; planktonic P. aeruginosa, 50 μM final drug concentration, 384-well, cutoff for positive-scoring molecules 3-fold increase, read-out: AK-based Prestwick Library Screening Results: P. aeruginosa (increase in extracellular AK activity)): 23.8 | fold induction at 50 µM (E. cloacae; planktonic E. cloacae, 50 μM final drug concentration, 384-well, cutoff for positive-scoring molecules 3-fold increase, read-out: AK-based Prestwick Library Screening Results: E. cloacae (increase in extracellular AK activity)): 1.8 | fold induction at 50 µM (E. coli; planktonic E. coli, 50 μM final drug concentration, 384-well, cutoff for positive-scoring molecules 3-fold increase, read-out: AK-based Prestwick Library Screening Results: E. coli (increase in extracellular AK activity)): 50.1

CS(=O)(=O)c1ccc([C@@H](O)[C@@H](CF)NC(=O)C(Cl)Cl)cc1 [Florfenicol]
fold induction at 50 µM (E. faecium; [4]): 1 | fold induction at 50 µM (K. pneumoniae; [5]): 0.3 | fold induction at 50 µM [2, 6]: 1.2 | fold induction at 50 µM (P. aeruginosa; [7]): 1.4 | fold induction at 50 µM (E. cloacae; [8]): 1.4 | fold induction at 50 µM (E. coli; 50 μM final drug concentration, […], read-out: AK-based Prestwick Library Screening Results, E. coli (fold increase in extracellular AK activity)): 1.2

NNc1nncc2ccccc12 [Hydralazine hydrochloride]
fold induction at 50 µM (E. faecium; 50 μM final drug concentration, 384-well format, cutoff for positive-scoring molecules 3-fold increase, read-out: AK-based Prestwick Library Screening Results, E. faecium (increase in extracellular AK activity)): 0.3 | fold induction at 50 µM ([1]; 50 μM final drug concentration, 384-well format, cutoff for positive-scoring molecules 3-fold increase, read-out: AK-based Prestwick Library Screening Results, S. aureus (increase in extracellular AK activity)): 0.2 | fold induction at 50 µM ([2]; 50 μM final drug concentration, 384-well format, cutoff for positive-scoring molecules 3-fold increase, read-out: AK-based Prestwick Library Screening Results, A. baumannii (increase in extracellular AK activity)): 0.1 | fold induction at 50 µM (E. cloacae; 50 μM final drug concentration, 384-well format, cutoff for positive-scoring molecules 3-fold increase, read-out: AK-based Prestwick Library Screening Results, E. cloacae (increase in extracellular AK activity)): 0.3

COc1cc(NC(C)CCCN)c2ncccc2c1 (stereo not drawn) [Primaquine diphosphate]
fold induction at 50 µM (E. faecium; 50 μM final drug concentration, planktonic, cutoff for positive 3-fold increase, read-out: AK-based Prestwick Library Screening Results, E. faecium (fold increase in extracellular AK activity)): 0.9 | fold induction at 50 µM ([1]; 50 μM final drug concentration, planktonic, cutoff for positive 3-fold increase, read-out: AK-based Prestwick Library Screening Results, S. aureus (fold increase in extracellular AK activity)): 2.1 | fold induction at 50 µM (K. pneumoniae; 50 μM final drug concentration, planktonic, cutoff for positive 3-fold increase, read-out: AK-based Prestwick Library Screening Results, K. pneumoniae (fold increase in extracellular AK activity)): 1 | fold induction at 50 µM ([2]; 50 μM final drug concentration, planktonic, cutoff for positive 3-fold increase, read-out: AK-based Prestwick Library Screening Results, A. baumannii (fold increase in extracellular AK activity)): 1.1 | fold induction at 50 µM (P. aeruginosa; 50 μM final drug concentration, planktonic, cutoff for positive 3-fold increase, read-out: AK-based Prestwick Library Screening Results, P. aeruginosa (fold increase in extracellular AK activity)): 1 | fold induction at 50 µM (E. cloacae; 50 μM final drug concentration, planktonic, cutoff for positive 3-fold increase, read-out: AK-based Prestwick Library Screening Results, E. cloacae (fold increase in extracellular AK activity)): 1.4

CCCCCCCCCCCCCCCC[N+](C)(C)CCN(Cc1ccc(OC)cc1)c1ncccn1 [Thonzonium bromide]
fold induction at 50 µM (E. faecium; [4]): 7.5 | fold induction at 50 µM (K. pneumoniae; [5]): 4.7 | fold induction at 50 µM [2, 6]: 5.6 | fold induction at 50 µM (P. aeruginosa; [7]): 1.5 | fold induction at 50 µM (E. cloacae; [8]): 1.8 | fold induction at 50 µM (E. coli; [9]): 3.2

CN[C@H](CC(C)C)C(=O)N[C@H]1C(=O)N[C@@H](CC(N)=O)C(=O)N[C@H]2C(=O)N[C@H]3C(=O)N[C@H](C(=O)N[C@H](C(=O)O)c4cc(O)cc(O)c4-c4cc3ccc4O)[C@H](O)c3ccc(c(Cl)c3)Oc3cc2cc(c3O[C@@H]2O[C@H](CO)[C@@H](O)[C@H](O)[C@H]2O[C@H]2C[C@](C)(N)[C@H](O)[C@H](C)O2)Oc2ccc(cc2Cl)[C@H]1O [Vancomycin hydrochloride]
fold induction at 50 µM (E. faecium; read-out: AK-based Prestwick Library Screening Results, E. faecium (increase in extracellular AK activity)): 1.5 | fold induction at 50 µM (K. pneumoniae; read-out: AK-based Prestwick Library Screening Results, K. pneumoniae (increase in extracellular AK activity)): 0.8 | fold induction at 50 µM ([2]; read-out: AK-based Prestwick Library Screening Results, A. baumannii (increase in extracellular AK activity)): 1.1 | fold induction at 50 µM (P. aeruginosa; read-out: AK-based Prestwick Library Screening Results, P. aeruginosa (increase in extracellular AK activity)): 0.9 | fold induction at 50 µM (E. cloacae; read-out: AK-based Prestwick Library Screening Results, E. cloacae (increase in extracellular AK activity)): 0.9 | fold induction at 50 µM (E. coli; read-out: AK-based Prestwick Library Screening Results, E. coli (increase in extracellular AK activity)): 1.2

O=C(NCCNCC(O)COc1ccc(O)cc1)N1CCOCC1 (stereo not drawn) [Xamoterol hemifumarate]
fold induction at 50 µM (E. faecium; read-out: AK-based Prestwick Library Screening Results, E. faecium (fold increase in extracellular AK activity)): 1 | fold induction at 50 µM ([1]; read-out: AK-based Prestwick Library Screening Results, S. aureus (fold increase in extracellular AK activity)): 1.1 | fold induction at 50 µM (K. pneumoniae; read-out: AK-based Prestwick Library Screening Results, K. pneumoniae (fold increase in extracellular AK activity)): 0.8 | fold induction at 50 µM ([2]; read-out: AK-based Prestwick Library Screening Results, A. baumannii (fold increase in extracellular AK activity)): 1 | fold induction at 50 µM (P. aeruginosa; read-out: AK-based Prestwick Library Screening Results, P. aeruginosa (fold increase in extracellular AK activity)): 1.2 | fold induction at 50 µM (E. cloacae; read-out: AK-based Prestwick Library Screening Results, E. cloacae (fold increase in extracellular AK activity)): 1.8
